ChEMBL document CHEMBL1201862, “PubChem BioAssay data set” (2004)
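Five concentrations, 48 hours, 96-well plates. GI50 marks 50% less growth.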 The source made the active and inactive calls. Rule as the data show it: active = GI50 up to about 1.1 µM and inactive = higher.

What was measured:
Experiment in all cases: NCI-60 cell line screen, 48 h
[1] = tested on: LXFL 529
[2] = tested on: DMS-114
[3] = tested on: M19-MEL
[4] = tested on: SNB-78
[5] = tested on: DMS-273
[6] = tested on: HOP-18
[7] = tested on: DLD-1

Measured: GI50

Cc1cccc2c1Sc1ccccc1C2NC(=O)CN(C)C (stereo not given)
inactive: [1] > 100 µM | [2] > 100 µM | [3] 47.4 µM | [4] > 100 µM | [5] > 100 µM

O=Cc1c(Br)[nH]c2ccccc12
inactive: [3] > 79.6 µM | [6] 61.1 µM | [4] > 67 µM | [7] > 100 µM | [5] > 100 µM
